Results from US20250230138A1, “COMPOUNDS HAVING A T-STRUCTURE FORMED BY AT LEAST FOUR CYCLES FOR USE IN THE TREATMENT OF CANCER AND OTHER INDICATIONS” (TheRas, Inc., priority 2022, published 2025).
Read-outs that look alike come from different tables or passages of the source.

Legend:
[1] = target: Cys242 in human PIK3CA (157-299) (Homo sapiens (Human), UniProt P42336); assay: Covalent modification assay using MALDI-TOF MS; format: biochemical; details: 4 h reaction time point; 3.33 μM protein target, 1:7.5 protein to compound ratio (compounds 1-852)
Sequence of Cys242 in human PIK3CA (157-299) (P42336 157-299): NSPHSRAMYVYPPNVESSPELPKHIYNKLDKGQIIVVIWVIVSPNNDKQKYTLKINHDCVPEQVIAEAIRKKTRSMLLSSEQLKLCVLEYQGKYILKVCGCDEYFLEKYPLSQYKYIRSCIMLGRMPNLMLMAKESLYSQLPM
How it was run: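 PIK3CA (157-299), 3.33 or 1 μM in 20 mM HEPES, 150 mM NaCl, 2 mM MgCl2, pH 7.3, was incubated with compound at room temperature in the dark for 15 min, 30 min, 2 h or 4 h. Linear MALDI-TOF read-out; % modification = adduct peak height over summed heights of all protein species.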

pAKT in BT474 cells = assay: Cell-based pAKT HTRF assay in BT474 cells; details: BT474 cells, 4 hr incubation, Compounds 10-999, read-out: pAKT inhibition IC50 in BT474 cells
How it was run: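 Cells grown in DMEM with 10% FBS were exposed to compounds for 4 hr in 0.25% DMSO, using a 9-point, 3-fold dilution series that starts at 3 μM. Lysates were incubated with d2 and Eu Cryptate antibodies for 4–24 h at room temperature, and HTRF was read at 615 nm emission.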

Row | Structure (SMILES) | IC50 (pAKT in BT474 cells) | IC50 (pAKT in BT474 cells; Homo sapiens, BT-474) | % of modification [1]
1 | C=CC(=O)N1CCn2nc(-c3nc(-c4cnn(C)c4)c4ccsc4c3-c3c(F)cc(F)cc3OCCO)cc2C1C (centres unmarked) [Compound 538] | < 100 nM | – | A (percent of modification of PIK3CA protein ≥75%)
2 | C=CC(=O)N1CCn2nc(-c3nc(-c4ccc5c(c4)CN(C)C5=O)c4ccsc4c3-c3c(F)cc(F)cc3OCCOC)cc2[C@H]1C [Compound 539] | < 100 nM | – | A (percent of modification of PIK3CA protein ≥75%)
3 | C=CC(=O)N1CCn2nc(-c3nc(-c4ccc5c(c4)CCN(C)C5)c4ccsc4c3-c3c(F)cc(F)cc3OCCOC)cc2[C@@H]1C [Compound 544] | < 100 nM | – | A (percent of modification of PIK3CA protein ≥75%)
4 | C=CC(=O)N1CCn2nc(-c3nc(-c4ccc5c(c4)CNC5=O)c4ccsc4c3-c3c(F)cc(F)cc3OCCOC)cc2[C@@H]1C [Compound 545] | < 100 nM | – | A (percent of modification of PIK3CA protein ≥75%)
5 | C=CC(=O)N1CCn2nc(-c3nc(-c4ccc5c(c4)CCN(C)C5)c4ccsc4c3-c3c(F)cc(F)cc3OC[C@@H](C)O)cc2[C@@H]1C [Compound 546] | < 100 nM | – | A (percent of modification of PIK3CA protein ≥75%)
6 | C=CC(=O)N1CCn2nc(-c3nc(-c4cnn(C)c4)c4ccsc4c3-c3c(F)cc(F)cc3OC[C@@H](C)O)cc2[C@@H]1C [Compound 547] | < 100 nM | – | A (percent of modification of PIK3CA protein ≥75%)
7 | C=CC(=O)N1CCn2nc(-c3nc(-c4ccc5c(c4)CCN(C)C5)c4ccsc4c3-c3c(F)cc(F)cc3OC3CC3)cc2[C@@H]1C [Compound 548] | < 100 nM | – | A (percent of modification of PIK3CA protein ≥75%)
8 | C=CC(=O)N1CCn2nc(-c3nc(-c4ccc5c(c4)CCN(C)C5)c4ccsc4c3-c3c(F)cc(F)cc3OC3CC3)cc2C1C (centres unmarked) [Compound 549] | < 100 nM | – | A (percent of modification of PIK3CA protein ≥75%)
9 | C=CC(=O)N1CCn2nc(-c3nc(-c4ccc5c(c4)CCN(C)C5)c4ccsc4c3-c3c(F)cc(F)cc3OCC(C)O)cc2C1C (centres unmarked) [Compound 550] | < 100 nM | – | A (percent of modification of PIK3CA protein ≥75%)
10 | C=CC(=O)N1CCn2nc(-c3nc(-c4cnn(C)c4)c4ccsc4c3-c3c(F)cc(F)cc3OCC(C)O)cc2C1C (centres unmarked) [Compound 551] | < 100 nM | – | A (percent of modification of PIK3CA protein ≥75%)
11 | C=CC(=O)N1CCn2nc(-c3nc(-c4ccc5ncn(C)c5c4)c4ccsc4c3-c3c(F)cc(F)cc3OCCOC)cc2C1C (centres unmarked) [Compound 552] | < 100 nM | – | A (percent of modification of PIK3CA protein ≥75%)
12 | C=CC(=O)N1CCn2nc(-c3nc(-c4cnc5c(c4)CN(C)C5=O)c4ccsc4c3-c3c(F)cc(F)cc3OCCOC)cc2C1C (centres unmarked) [Compound 553] | < 100 nM | – | A (percent of modification of PIK3CA protein ≥75%)
13 | C=CC(=O)N1Cc2cc(-c3nc(-c4cnc5c(c4)CNC5=O)c4ccsc4c3-c3c(F)cc(F)cc3OCCOC)nn2CC1C (centres unmarked) [Compound 554] | < 100 nM | – | A (percent of modification of PIK3CA protein ≥75%)
14 | C=CC(=O)N1Cc2cc(-c3nc(-c4ccc5c(c4)CCN(C)C5)c4ccsc4c3-c3c(F)cc(F)cc3OC(C)C)nn2C(C)C1 (centres unmarked) [Compound 555] | 100 to 1000 nM | – | D (percent of modification <25%)

Now from value to molecule, other results behind:

Row | IC50 (pAKT in BT474 cells) | IC50 (pAKT in BT474 cells; Homo sapiens, BT-474) | Structure (SMILES) | % of modification [1]
15 | < 100 nM | – | C=CC(=O)N1Cc2cc(-c3nc(-c4ccc5c(c4)CCN(C)C5)c4ccsc4c3-c3c(F)cc(F)cc3OC(C)C)nn2C(C)C1 (centres unmarked) [Compound 556] | A (percent of modification of PIK3CA protein ≥75%)
16 | 100 to 1000 nM | – | C=CC(=O)N1Cc2cc(-c3nc(-c4ccc5c(c4)CCN(C)C5)c4ccsc4c3-c3c(F)cc(F)cc3OCCOC)nn2C(C)C1 (centres unmarked) [Compound 558] | D (percent of modification <25%)
17 | < 100 nM | – | C=CC(=O)N1Cc2cc(-c3nc(-c4ccc5c(c4)CCN(C)C5)c4ccsc4c3-c3c(F)cc(F)cc3OCCOC)nn2[C@@H](C)C1 [Compound 560] | A (percent of modification of PIK3CA protein ≥75%)
18 | 100 to 1000 nM | – | C=CC(=O)N1Cc2cc(-c3nc(-c4ccc5c(c4)CCN(C)C5)c4ccsc4c3-c3c(F)cc(F)cc3OC)nn2[C@@H](C)C1 [Compound 562] | C (25%≤percent of modification <50%)
19 | < 100 nM | – | C=CC(=O)N1Cc2cc(-c3nc(-c4ccc5c(c4)CCN(C)C5)c4ccsc4c3-c3c(F)cc(F)cc3OC)nn2[C@@H](C)C1 [Compound 563] | A (percent of modification of PIK3CA protein ≥75%)
20 | 100 to 1000 nM | – | C=CC(=O)N1Cc2cc(-c3nc(-c4ccc5c(c4)CCN(C)C5)c4ccsc4c3-c3c(F)cc(F)cc3OCCO)nn2[C@@H](C)C1 [Compound 564] | D (percent of modification <25%)
21 | < 100 nM | – | C=CC(=O)N1Cc2cc(-c3nc(-c4ccc5c(c4)CCN(C)C5)c4ccsc4c3-c3c(F)cc(F)cc3OCCO)nn2[C@@H](C)C1 [Compound 565] | A (percent of modification of PIK3CA protein ≥75%)
22 | 100 to 1000 nM | – | C=CC(=O)N1Cc2cc(-c3nc(-c4cnn(C)c4)c4ccsc4c3-c3c(F)cc(F)cc3OCCO)nn2[C@@H](C)C1 [Compound 566] | D (percent of modification <25%)
23 | < 100 nM | – | C=CC(=O)N1Cc2cc(-c3nc(-c4cnn(C)c4)c4ccsc4c3-c3c(F)cc(F)cc3OCCO)nn2[C@@H](C)C1 [Compound 567] | A (percent of modification of PIK3CA protein ≥75%)
24 | < 100 nM | – | C=CC(=O)N1CCc2cc(-c3nc(-c4cnc5c(c4)CNC(=O)C5)c4ccsc4c3-c3c(F)cc(F)cc3OC(C)C)nn2CC1 [Compound 568] | A (percent of modification of PIK3CA protein ≥75%)
25 | < 100 nM | – | C=CC(=O)N1CCc2cc(-c3nc(-c4cnn(C)c4)c4ccsc4c3-c3c(F)cc(F)cc3OC(C)C)nn2CC1 [Compound 569] | A (percent of modification of PIK3CA protein ≥75%)
26 | < 100 nM | – | C=CC(=O)N1Cc2cc(-c3nc(-c4ccc5nn(C)cc5c4)c4ccsc4c3-c3c(F)cc(F)cc3OC[C@@H](C)O)nn2[C@@H](C)C1 [Compound 571, 1-((S)-2-((R)-7-(2,4-difluoro-6-((R)-2-hydroxypropoxy)phenyl)-4-(2-methyl-2H-indazol-5-yl)thieno[3,2-c]pyridin-6-yl)-7-methyl-6,7-dihydropyrazolo[1,5-a]pyrazin-5(4H)-yl)prop-2-en-1-one] | D (percent of modification <25%)
27 | < 100 nM | – | C=CC(=O)N1Cc2cc(-c3nc(-c4ccc5nn(C)cc5c4)c4ccsc4c3-c3c(F)cc(F)cc3OC[C@@H](C)O)nn2[C@@H](C)C1 [Compound 572, 1-((S)-2-((S)-7-(2,4-difluoro-6-((R)-2-hydroxypropoxy)phenyl)-4-(2-methyl-2H-indazol-5-yl)thieno[3,2-c]pyridin-6-yl)-7-methyl-6,7-dihydropyrazolo[1,5-a]pyrazin-5(4H)-yl)prop-2-en-1-one] | A (percent of modification of PIK3CA protein ≥75%)
28 | < 100 nM | – | C=CC(=O)N1CCc2cc(-c3nc(-c4ccc5ncn(C)c5c4)c4ccsc4c3-c3c(F)cc(F)cc3OC(C)C)nn2CC1 [Compound 573] | A (percent of modification of PIK3CA protein ≥75%)
29 | – | < 100 nM | C=CC(=O)N1CCn2nc(-c3nc(-c4cnn(C)c4)c4c(c3-c3ccc(F)cc3OC)C(F)CC4)cc2C1 (centres unmarked) [Compound 574, 1-(2-(5-fluoro-4-(4-fluoro-2-methoxyphenyl)-1-(1-methyl-1H-pyrazol-4-yl)-6,7-dihydro-5H-cyclopenta[c]pyridin-3-yl)-6,7-dihydropyrazolo[1,5-a]pyrazin-5(4H)-yl)prop-2-en-1-one] | A (percent of modification of PIK3CA protein ≥75%)
30 | 100 to 1000 nM | – | C=C(F)C(=O)N1Cc2cc(-c3nc(-c4ccc5c(c4)CCN(C)C5)c4ccsc4c3-c3c(F)cc(F)cc3OC[C@@H](C)O)nn2C[C@H]1C [Compound 575] | D (percent of modification <25%)
31 | < 100 nM | – | C=CC(=O)N1Cc2cc(-c3nc(-c4cnn(C)c4)c4ccsc4c3-c3c(F)cc(F)cc3OCCOC)nn2C[C@H]1C [Compound 577] | A (percent of modification of PIK3CA protein ≥75%)
32 | 1000 to 3000 nM | – | C=CC(=O)N1Cc2cc(-c3nc(-c4cnn(C)c4)c4ccsc4c3-c3c(F)cc(F)cc3OCCOC)nn2C[C@H]1C [Compound 578] | D (percent of modification <25%)
33 | 1000 to 3000 nM | – | C=CC(=O)N1CCc2ccc(-c3nc(-c4cnc5c(c4)CNC(=O)C5)c4ccsc4c3-c3c(F)cc(F)cc3OCCOC)cc2C1 [Compound 579, (R)-3-(6-(2-acryloyl-1,2,3,4-tetrahydroisoquinolin-7-yl)-7-(2,4-difluoro-6-(2-methoxyethoxy)phenyl)thieno[3,2-c]pyridin-4-yl)-5,8-dihydro-1,6-naphthyridin-7(6H)-one] | D (percent of modification <25%)
34 | < 100 nM | – | C=CC(=O)N1CCc2ccc(-c3nc(-c4cnc5c(c4)CNC(=O)C5)c4ccsc4c3-c3c(F)cc(F)cc3OCCOC)cc2C1 [Compound 580, (S)-3-(6-(2-acryloyl-1,2,3,4-tetrahydroisoquinolin-7-yl)-7-(2,4-difluoro-6-(2-methoxyethoxy)phenyl)thieno[3,2-c]pyridin-4-yl)-5,8-dihydro-1,6-naphthyridin-7(6H)-one] | A (percent of modification of PIK3CA protein ≥75%)
